The source of these data is patent US20240366594A1, “Small Molecule Inhibitors of Formation of Neutrophil-Derived Extracellular Traps (NETosis) and Uses Thereof” (The Brigham and Women's Hospital, Inc., priority 2021, published 2024).

For this experiment, the system named is primary human neutrophils. Description: Extracellular DNA release by PMA-activated human neutrophils. The experiment is classed as cell-based. Conditions: 1 μM GSK484 for 1 h, then 1 μM PMA for 4 hours; FIG. 5A. As to the method: FIGS. 5A-J. Class I/II HDACs drive NET formation. • A) Quantification of extracellular DNA released by neutrophils treated, or not, with 1 μM GSK484 for 1 h and then stimulated with 1 μM PMA for 4 hours. Unstimulated, neutrophils not treated with drugs were used as a control. • B) Freshly purified human neutrophils were treated with the indicated HDAC inhibitors at different doses (0.08, 0.4, 2 and 10 μM) for 1 hour. Extracellular DNA release was assessed in the supernatant 3 hours after PMA stimulation. The dotted line represents the amount of DNA released from neutrophils treated with PMA alone. […] NETosis induction was measured as level of anti-CitH3 fluorescent signal. […] NET induction was measured as in (C). […] NETosis induction was measured as level of anti-CitH3 fluorescent signal. […] NET induction was measured as in (F). • H, I) Freshly isolated neutrophils from two different donors were treated with different doses of ricolinostat, citarinostat (10, 2, 0.4, 0.08 μM) or GSK484 (10, 5, 2 μM) for 1 h and then stimulated with 1 μM PMA. NET induction was measured as level of anti-CitH3 fluorescent signal (H) and by microscopy as number of cells positive for CitH3 signal per field of view (FOV) (I). […] NET induction was measured as level of anti-CitH3 fluorescent signal. […] Statistics were calculated using One-way ANOVA (A, E, I) and Two-way ANOVA (B, F, G, H, L). […]

Turning to `COc1cc(C(=O)N2CC[C@@H](O)[C@@H](N)C2)cc2nc(-c3cc4ccccc4n3CC3CC3)n(C)c12` [GSK484], the “extracellular DNA released by PMA-treated neutrophils” value is “significant decrease”.
